What is called IC50 is the point on the concentration scale where inhibition reaches its midpoint.

The assay deals with T1, recombinant sEH (Homo sapiens, UniProt P34913).
T1 construct: made in house; host or cells: Sf9 insect cells
T1 sequence (P34913 1-555): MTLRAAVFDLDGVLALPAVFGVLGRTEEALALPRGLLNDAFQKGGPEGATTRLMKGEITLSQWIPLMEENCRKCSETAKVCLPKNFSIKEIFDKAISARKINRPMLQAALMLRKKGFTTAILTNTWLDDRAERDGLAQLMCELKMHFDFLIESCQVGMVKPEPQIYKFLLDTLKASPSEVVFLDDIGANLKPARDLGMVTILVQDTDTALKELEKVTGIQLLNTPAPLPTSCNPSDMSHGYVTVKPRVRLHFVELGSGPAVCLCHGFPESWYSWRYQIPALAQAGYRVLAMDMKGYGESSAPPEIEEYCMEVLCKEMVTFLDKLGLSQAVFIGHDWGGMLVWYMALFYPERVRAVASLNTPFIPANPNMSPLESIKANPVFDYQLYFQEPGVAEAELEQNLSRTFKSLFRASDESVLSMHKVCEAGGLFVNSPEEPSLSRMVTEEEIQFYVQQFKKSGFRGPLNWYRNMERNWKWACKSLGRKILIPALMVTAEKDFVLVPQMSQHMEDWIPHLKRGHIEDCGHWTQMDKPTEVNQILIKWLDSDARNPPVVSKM
As to the kind of experiment: biochemical screening assay for inhibition of soluble epoxide hydrolase (fluorometric, Phome substrate). The method in brief: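 Reading fluorescence before substrate addition and after completion corrected for autofluorescence. Reaction: 5 μM Phome, 2 nM recombinant human sEH (Sf9-expressed), compound 0.0001–10 μM, 25 mM Hepes with 0.01% albumin, 15 min pre-incubation then 60 min at 30 °C; IC50 derived from % inhibition.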

For the molecule `Cc1ncccc1O[C@H]1CO[C@H]2[C@@H]1OC[C@@H]2NC(=O)NC1CC(C)CC(C)(C)C1` (stereo partly drawn) [Example 256, 1-[(3S,3aR,6S,6aS)-6-(2-Methyl-pyridin-3-yloxy)-hexahydro-furo[3,2-b]furan-3-yl]-3-(3,3,5-trimethyl-cyclohexyl)-urea], the IC50 turned out to be 3 nM.

As to `Cc1ncccc1O[C@H]1CO[C@H]2[C@@H]1OC[C@@H]2NC(=O)NC1CCC(C)CC1` (stereo partly drawn) [Example 257, 1-(4-Methyl-cyclohexyl)-3-[(3S,3aR,6S,6aS)-6-(2-methyl-pyridin-3-yloxy)-hexahydro-furo[3,2-b]furan-3-yl]-urea], the IC50 came out at 3 nM.

For the molecule `Cc1ncccc1O[C@H]1CO[C@H]2[C@@H]1OC[C@@H]2NC(=O)NC1CCCC(C)C1` (stereo partly drawn) [Example 258, 1-(3-Methyl-cyclohexyl)-3-[(3S,3aR,6S,6aS)-6-(2-methyl-pyridin-3-yloxy)-hexahydro-furo[3,2-b]furan-3-yl]-urea], the 50% inhibitory concentration (IC50) stood at 2 nM.

As for `Cc1ncccc1O[C@H]1CO[C@H]2[C@@H]1OC[C@@H]2NC(=O)NC1CCCCC1C` (stereo partly drawn) [Example 259, 1-(2-Methyl-cyclohexyl)-3-[(3S,3aR,6S,6aS)-6-(2-methyl-pyridin-3-yloxy)-hexahydro-furo[3,2-b]furan-3-yl]-urea], the 50% inhibitory concentration (IC50) worked out at 5 nM.

On to `Cc1ncccc1O[C@H]1CO[C@H]2[C@@H]1OC[C@@H]2NC(=O)NC1CCC(C(C)(C)C)CC1` (stereo partly drawn) [Example 260, 1-(4-tert-Butyl-cyclohexyl)-3-[(3S,3aR,6S,6aS)-6-(2-methyl-pyridin-3-yloxy)-hexahydro-furo[3,2-b]furan-3-yl]-urea], for which the IC50 is 8 nM.

In the case of `Cc1ncccc1O[C@H]1CO[C@H]2[C@@H]1OC[C@@H]2NC(=O)NC1CCCC(C)C1C` (stereo partly drawn) [Example 261, 1-(2,3-Dimethyl-cyclohexyl)-3-[(3S,3aR,6S,6aS)-6-(2-methyl-pyridin-3-yloxy)-hexahydro-furo[3,2-b]furan-3-yl]-urea], the concentration for half-maximal inhibition (IC50) worked out at 3 nM.

On to `Cc1ncccc1O[C@H]1CO[C@H]2[C@@H]1OC[C@@H]2NC(=O)NC1CC2CC1C1CCCC21` (stereo partly drawn) [Example 262, 1-[(3S,3aR,6S,6aS)-6-(2-Methyl-pyridin-3-yloxy)-hexahydro-furo[3,2-b]furan-3-yl]-3-(octahydro-4,7-methano-inden-5-yl)-urea], for which the 50% inhibitory concentration (IC50) stood at 2 nM.

Turning to `Cc1ncccc1O[C@H]1CO[C@H]2[C@@H]1OC[C@@H]2NC(=O)NC1CC(C)CCC1C(C)C` (stereo partly drawn) [Example 263, 1-(2-Isopropyl-5-methyl-cyclohexyl)-3-[(3S,3aR,6S,6aS)-6-(2-methyl-pyridin-3-yloxy)-hexahydro-furo[3,2-b]furan-3-yl]-urea], the IC50 stood at 25 nM.

Turning to `Cc1ncccc1O[C@H]1CO[C@H]2[C@@H]1OC[C@@H]2NC(=O)NC1CCC(c2ccccc2)CC1` (stereo partly drawn) [Example 264, 1-[(3S,3aR,6S,6aS)-6-(2-Methyl-pyridin-3-yloxy)-hexahydro-furo[3,2-b]furan-3-yl]-3-(4-phenyl-cyclohexyl)-urea], the 50% inhibitory concentration (IC50) was found to be 6 nM.

Take `Cc1ncccc1O[C@H]1CO[C@H]2[C@@H]1OC[C@@H]2NC(=O)N[C@@H]1CCCC[C@H]1C(C)(C)C` [Example 265, 1-((1R,2S)-2-tert-Butyl-cyclohexyl)-3-[(3S,3aR,6S,6aS)-6-(2-methyl-pyridin-3-yloxy)-hexahydro-furo[3,2-b]furan-3-yl]-urea]: the 50% inhibitory concentration (IC50) was 111 nM.

Take `Cc1ncccc1O[C@H]1CO[C@H]2[C@@H]1OC[C@@H]2NC(=O)NC1CCC2(CC1)OCCO2` [Example 266, 1-(1,4-Dioxa-spiro[4.5]dec-8-yl)-3-[(3S,3aR,6S,6aS)-6-(2-methyl-pyridin-3-yloxy)-hexahydro-furo[3,2-b]furan-3-yl]-urea]: the half-inhibitory concentration (IC50) came out at 16 nM.

For the molecule `Cc1ncccc1O[C@H]1CO[C@H]2[C@@H]1OC[C@@H]2NC(=O)N[C@H]1CC[C@H](C)CC1` [Example 267, 1-(trans-4-Methyl-cyclohexyl)-3-[(3S,3aR,6S,6aS)-6-(2-methyl-pyridin-3-yloxy)-hexahydro-furo[3,2-b]furan-3-yl]-urea], the IC50 was determined as 2 nM.

As for `Cc1ncccc1O[C@H]1CO[C@H]2[C@@H]1OC[C@@H]2NC(=O)NC1CCC(C)(C)CC1` [Example 268, 1-(4,4-Dimethyl-cyclohexyl)-3-[(3S,3aR,6S,6aS)-6-(2-methyl-pyridin-3-yloxy)-hexahydro-furo[3,2-b]furan-3-yl]-urea], the concentration for half-maximal inhibition (IC50) was 2 nM.

On to `Cc1ncccc1O[C@H]1CO[C@H]2[C@@H]1OC[C@@H]2NC(=O)NC1C(C)CCCC1C` (stereo partly drawn) [Example 269, 1-(2,6-Dimethyl-cyclohexyl)-3-[(3S,3aR,6S,6aS)-6-(2-methyl-pyridin-3-yloxy)-hexahydro-furo[3,2-b]furan-3-yl]-urea], for which the 50% inhibitory concentration (IC50) is 2 nM.

Turning to `Cc1ncccc1O[C@H]1CO[C@H]2[C@@H]1OC[C@@H]2NC(=O)NC1CCCCC1(C)C` (stereo partly drawn) [Example 270, 1-(2,2-Dimethyl-cyclohexyl)-3-[(3S,3aR,6S,6aS)-6-(2-methyl-pyridin-3-yloxy)-hexahydro-furo[3,2-b]furan-3-yl]-urea], the IC50 was determined as 16 nM.

For `Cc1ncccc1O[C@H]1CO[C@H]2[C@@H]1OC[C@@H]2NC(=O)NC1CCCCC1C(C)(C)C` (stereo partly drawn) [Example 271, 1-(2-tert-Butyl-cyclohexyl)-3-[(3S,3aR,6S,6aS)-6-(2-methyl-pyridin-3-yloxy)-hexahydro-furo[3,2-b]furan-3-yl]-urea], the IC50 came out at 99 nM.

For `Cc1ncccc1O[C@H]1CO[C@H]2[C@@H]1OC[C@@H]2NC(=O)N[C@H]1CC[C@@H](C)CC1` [Example 272, 1-(cis-4-Methyl-cyclohexyl)-3-[(3S,3aR,6S,6aS)-6-(2-methyl-pyridin-3-yloxy)-hexahydro-furo[3,2-b]furan-3-yl]-urea], the IC50 was determined as 1 nM.

Turning to `Cc1ncccc1O[C@H]1CO[C@H]2[C@@H]1OC[C@@H]2NC(=O)NC1CC(C)(C)CC(C)(C)C1` [Example 273, 1-[(3S,3aR,6S,6aS)-6-(2-Methyl-pyridin-3-yloxy)-hexahydro-furo[3,2-b]furan-3-yl]-3-(3,3,5,5-tetramethyl-cyclohexyl)-urea], the half-maximal inhibitory concentration (IC50) was found to be 1 nM.

`Cc1ncccc1O[C@H]1CO[C@H]2[C@@H]1OC[C@@H]2NC(=O)N[C@@H]1CCCC[C@H]1F` [Example 274, 1-((1R,2R)-2-Fluoro-cyclohexyl)-3-[(3S,3aR,6S,6aS)-6-(2-methyl-pyridin-3-yloxy)-hexahydro-furo[3,2-b]furan-3-yl]-urea]: the IC50 amounted to 14 nM.

Regarding `Cc1ncccc1O[C@H]1CO[C@H]2[C@@H]1OC[C@@H]2NC(=O)NC1CCCCC1C(F)(F)F` (stereo partly drawn) [Example 275, 1-[(3S,3aR,6S,6aS)-6-(2-Methyl-pyridin-3-yloxy)-hexahydro-furo[3,2-b]furan-3-yl]-3-(2-trifluoromethyl-cyclohexyl)-urea], the IC50 is 19 nM.

Take `Cc1ncccc1O[C@H]1CO[C@H]2[C@@H]1OC[C@@H]2NC(=O)NC1CCC(C)CC1C` (stereo partly drawn) [Example 276, 1-(2,4-Dimethyl-cyclohexyl)-3-[(3S,3aR,6S,6aS)-6-(2-methyl-pyridin-3-yloxy)-hexahydro-furo[3,2-b]furan-3-yl]-urea]: the IC50 worked out at 1 nM.

On to `Cc1ncccc1O[C@H]1CO[C@H]2[C@@H]1OC[C@@H]2NC(=O)NC1CCCCC1(F)F` (stereo partly drawn) [Example 277, 1-(2,2-Difluoro-cyclohexyl)-3-[(3S,3aR,6S,6aS)-6-(2-methyl-pyridin-3-yloxy)-hexahydro-furo[3,2-b]furan-3-yl]-urea], for which the 50% inhibitory concentration (IC50) was 2 nM.

The record behind these values is patent US9540391B2, “Isomannide derivatives as inhibitors of soluble epoxide hydrolase” (SANOFI, priority 2013, dated 2017).
